Measured values taken from ChEMBL document CHEMBL1201861, “Genomics of Drug Sensitity in Cancer screening data, Wellcome Trust Sanger Institute”.

Assays:
Type in all cases: functional, cell-based
[1] = test system: HPAF-II; test: cells; conditions: Homo sapiens;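 also: growth inhibition of HPAF-II cells, read out with a cell viability assay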
Description: SANGER: Inhibition of human HPAF-II cell growth in a cell viability assay.

[2] = test system: NCI-H1993; test: cells; conditions: Homo sapiens;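 also: growth inhibition of the cancer cell line, assessed with a cell viability assay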
Description: SANGER: Inhibition of human NCI-H1993 cell growth in a cell viability assay.

[3] = test system: HCC1569; test: cells; conditions: Homo sapiens;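 also: growth inhibition of human HCC1569 cells, read out with a cell viability assay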
Description: SANGER: Inhibition of human HCC1569 cell growth in a cell viability assay.

[4] = test system: SW780; test: cells; conditions: Homo sapiens;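 also: growth inhibition of the cells, read out with a cell viability assay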
Description: SANGER: Inhibition of human SW780 cell growth in a cell viability assay.

[5] = test system: SW756; test: cells; conditions: Homo sapiens;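 also: growth inhibition of human SW756 cells, read out with a cell viability assay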
Description: SANGER: Inhibition of human SW756 cell growth in a cell viability assay.

[6] = test system: BOKU; test: cells; conditions: Homo sapiens;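 also: growth inhibition of the human BOKU cell line, read out by a cell viability assay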
Description: SANGER: Inhibition of human BOKU cell growth in a cell viability assay.

[7] = test system: SW1417; test: cells; conditions: Homo sapiens;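 also: growth inhibition of human SW1417 cells, read out with a cell viability assay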
Description: SANGER: Inhibition of human SW1417 cell growth in a cell viability assay.

[8] = test system: IMR-5; test: cells; conditions: Homo sapiens;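 also: growth inhibition of human IMR-5 cells, read out with a cell viability assay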
Description: SANGER: Inhibition of human IMR-5 cell growth in a cell viability assay.

[9] = test system: Daoy; test: cells; conditions: Homo sapiens;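 also: daoy cell growth inhibition, read out as cell viability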
Description: SANGER: Inhibition of human Daoy cell growth in a cell viability assay.

[10] = test system: ASPC1; test: cells; conditions: Homo sapiens;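 also: growth inhibition of AsPC-1 cells, read out with a cell viability assay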
Description: SANGER: Inhibition of human AsPC-1 cell growth in a cell viability assay.

[11] = test system: NCI-H2081; test: cells; conditions: Homo sapiens;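 also: growth inhibition of human NCI-H2081 cells, read out with a cell viability assay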
Description: SANGER: Inhibition of human NCI-H2081 cell growth in a cell viability assay.

[12] = test system: TGW; test: cells; conditions: Homo sapiens;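 also: growth inhibition of human TGW cells, read out with a cell viability assay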
Description: SANGER: Inhibition of human TGW cell growth in a cell viability assay.

[13] = test system: KYSE-70 cell line; test: cells; conditions: Homo sapiens;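 also: cell viability assay read-out, with IC50 expressing suppression of KYSE-70 cell growth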
Description: SANGER: Inhibition of human KYSE-70 cell growth in a cell viability assay.

[14] = test system: SNU-449; test: cells; conditions: Homo sapiens
Description: SANGER: Inhibition of human SNU-449 cell growth in a cell viability assay.

[15] = test system: Calu-3; test: cells; conditions: Homo sapiens;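 also: growth inhibition of human Calu-3 cells, determined with a cell viability assay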
Description: SANGER: Inhibition of human Calu-3 cell growth in a cell viability assay.

[16] = test system: WSU-NHL; test: cells; conditions: Homo sapiens;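 also: growth inhibition of human WSU-NHL cells, read out with a cell viability assay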
Description: SANGER: Inhibition of human WSU-NHL cell growth in a cell viability assay.

[17] = test system: COR-L279; test: SANGER: Inhibition of human COR-L279 cell growth in a cell viability assay.
[18] = test system: SCC-9; test: cells; conditions: Homo sapiens;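 also: Read-out is a cell viability assay, with values giving inhibition of cell growth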
Description: SANGER: Inhibition of human SCC-9 cell growth in a cell viability assay.

[19] = test system: NCI-H748; test: cells; conditions: Homo sapiens;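 also: growth inhibition of NCI-H748 cells, measured by a cell viability assay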
Description: SANGER: Inhibition of human NCI-H748 cell growth in a cell viability assay.

[20] = test system: FaDu; test: cells; conditions: Homo sapiens;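 also: cell viability readout of growth inhibition in FaDu cells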
Description: SANGER: Inhibition of human FADU cell growth in a cell viability assay.

[21] = test system: SW1990; test: cells; conditions: Homo sapiens
Description: SANGER: Inhibition of human SW1990 cell growth in a cell viability assay.

[22] = test system: 639-V; test: cells; conditions: Homo sapiens;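 also: growth inhibition of 639-V cells, read out with a cell viability assay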
Description: SANGER: Inhibition of human 639-V cell growth in a cell viability assay.

[23] = test system: CMK; test: cells; conditions: Homo sapiens;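 also: growth inhibition of CMK cells, read out as cell viability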
Description: SANGER: Inhibition of human CMK cell growth in a cell viability assay.

[24] = test system: KU-19-19; test: cells; conditions: Homo sapiens
Description: SANGER: Inhibition of human KU-19-19 cell growth in a cell viability assay.

[25] = test system: 769-P; test: cells; conditions: Homo sapiens
Description: SANGER: Inhibition of human 769-P cell growth in a cell viability assay.

[26] = test system: HCC1419; test: cells; conditions: Homo sapiens;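 also: growth inhibition of human HCC1419 cells, read out as cell viability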
Description: SANGER: Inhibition of human HCC1419 cell growth in a cell viability assay.

[27] = test system: IST-SL2; test: cells; conditions: Homo sapiens;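 also: growth inhibition of human IST-SL2 cells, read out by a cell viability assay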
Description: SANGER: Inhibition of human IST-SL2 cell growth in a cell viability assay.

[28] = test system: SIMA; test: cells; conditions: Homo sapiens;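 also: growth inhibition of SIMA cells, measured with a cell viability readout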
Description: SANGER: Inhibition of human SIMA cell growth in a cell viability assay.

[29] = test system: Panc1005; test: cells; conditions: Homo sapiens;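 also: growth inhibition of human PANC-10-05 cells, measured by a cell viability assay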
Description: SANGER: Inhibition of human PANC-10-05 cell growth in a cell viability assay.

[30] = test system: MDA-MB-231; test: cells; conditions: Homo sapiens
Description: SANGER: Inhibition of human MDA-MB-231 cell growth in a cell viability assay.

[31] = test system: UACC-893; test: cells; conditions: Homo sapiens
Description: SANGER: Inhibition of human UACC-893 cell growth in a cell viability assay.

[32] = test system: KYSE-410; test: cells; conditions: Homo sapiens;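 also: growth inhibition of KYSE-410 cells, measured through a cell viability readout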
Description: SANGER: Inhibition of human KYSE-410 cell growth in a cell viability assay.

[33] = test system: SW13; test: cells; conditions: Homo sapiens;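 also: IC50 is inhibition of SW13 cell growth, read out with a cell viability assay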
Description: SANGER: Inhibition of human SW13 cell growth in a cell viability assay.

[34] = test system: CWR22R; test: cells; conditions: Homo sapiens, 22Rv1;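 also: growth inhibition of 22Rv1 cells, read out with a cell viability assay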
Description: SANGER: Inhibition of human 22RV1 cell growth in a cell viability assay.

[35] = test system: NCI-H1693; test: cells; conditions: Homo sapiens;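 also: growth inhibition of the human cell line, read out with a cell viability assay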
Description: SANGER: Inhibition of human NCI-H1693 cell growth in a cell viability assay.

[36] = test system: LOUCY; test: cells; conditions: Homo sapiens;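 also: growth inhibition of human LOUCY cells, read out with a cell viability assay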
Description: SANGER: Inhibition of human LOUCY cell growth in a cell viability assay.

[37] = test system: SAS; test: cells; conditions: Homo sapiens;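 also: growth inhibition of SAS cells, read out with a cell viability assay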
Description: SANGER: Inhibition of human SAS cell growth in a cell viability assay.

[38] = test system: HTC-C3; test: cells; conditions: Homo sapiens;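 also: inhibition of cell growth, read out with a cell viability assay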
Description: SANGER: Inhibition of human HTC-C3 cell growth in a cell viability assay.

[39] = test system: COLO-678; test: cells; conditions: Homo sapiens
Description: SANGER: Inhibition of human COLO-678 cell growth in a cell viability assay.

[40] = test system: NCI-H2228; test: cells; conditions: Homo sapiens;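 also: growth inhibition of human NCI-H2228 cells, read out by a cell viability assay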
Description: SANGER: Inhibition of human NCI-H2228 cell growth in a cell viability assay.

[41] = test system: VM-CUB-1; test: cells; conditions: Homo sapiens;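 also: cell viability assay measuring growth inhibition of the human VM-CUB-1 cell line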
Description: SANGER: Inhibition of human VM-CUB-1 cell growth in a cell viability assay.

[42] = test system: MCF7; test: cells; conditions: Homo sapiens;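 also: growth inhibition of human MCF7 cells, read out with a cell viability assay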
Description: SANGER: Inhibition of human MCF7 cell growth in a cell viability assay.

[43] = test system: BT-20; test: cells; conditions: Homo sapiens;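 also: cell viability assay measuring suppression of growth in human BT-20 cells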
Description: SANGER: Inhibition of human BT-20 cell growth in a cell viability assay.

[44] = test system: OE19; test: cells; conditions: Homo sapiens;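 also: growth inhibition of OE19 cells, measured through a cell viability read-out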
Description: SANGER: Inhibition of human OE19 cell growth in a cell viability assay.

[45] = test system: CP50-MEL-B; test: cells; conditions: Homo sapiens;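 also: growth inhibition of the human cell line, measured with a cell viability read-out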
Description: SANGER: Inhibition of human CP50-MEL-B cell growth in a cell viability assay.

[46] = test system: PFSK-1; test: cells; conditions: Homo sapiens;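 also: cell viability assay measuring how strongly compounds suppress growth of human PFSK-1 cells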
Description: SANGER: Inhibition of human PFSK-1 cell growth in a cell viability assay.

[47] = test system: KYSE-450; test: cells; conditions: Homo sapiens;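 also: cell growth inhibition measured by a viability assay in human KYSE-450 cells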
Description: SANGER: Inhibition of human KYSE-450 cell growth in a cell viability assay.

[48] = test system: NCI-H2452; test: cells; conditions: Homo sapiens;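 also: growth inhibition of NCI-H2452 cells, read out with a cell viability assay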
Description: SANGER: Inhibition of human NCI-H2452 cell growth in a cell viability assay.

[49] = test system: NALM-6; test: cells; conditions: Homo sapiens;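 also: growth inhibition of NALM-6 cells, read out with a cell viability assay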
Description: SANGER: Inhibition of human NALM-6 cell growth in a cell viability assay.

[50] = test system: CHP-212; test: cells; conditions: Homo sapiens
Description: SANGER: Inhibition of human CHP-212 cell growth in a cell viability assay.

[51] = test system: HO-1-N-1; test: cells; conditions: Homo sapiens;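 also: growth inhibition of human HO-1-N-1 cells, read out with a cell viability assay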
Description: SANGER: Inhibition of human HO-1-N-1 cell growth in a cell viability assay.

[52] = test system: SW1710; test: cells; conditions: Homo sapiens;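 also: growth inhibition of SW1710 cells, determined with a cell viability assay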
Description: SANGER: Inhibition of human SW1710 cell growth in a cell viability assay.

[53] = test system: NB1; test: cells; conditions: Homo sapiens;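 also: reduction of NB1 cell proliferation, read out with a viability assay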
Description: SANGER: Inhibition of human NB1 cell growth in a cell viability assay.

[54] = test system: VMRC-RCZ; test: cells; conditions: Homo sapiens
Description: SANGER: Inhibition of human VMRC-RCZ cell growth in a cell viability assay.

[55] = test system: IM-9; test: SANGER: Inhibition of human IM-9 cell growth in a cell viability assay.
[56] = test system: DMS-153; test: cells; conditions: Homo sapiens
Description: SANGER: Inhibition of human DMS-153 cell growth in a cell viability assay.

[57] = test system: SJRH30; test: cells; conditions: Homo sapiens;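 also: growth inhibition of human SJRH30 cells, read out with a cell viability assay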
Description: SANGER: Inhibition of human SJRH30 cell growth in a cell viability assay.

[58] = test system: BEN; test: cells; conditions: Homo sapiens;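 also: growth inhibition of the BEN cell line, read out with a cell viability assay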
Description: SANGER: Inhibition of human BEN cell growth in a cell viability assay.

[59] = test system: K052; test: cells; conditions: Homo sapiens;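 also: Read-out from a cell viability assay, IC50 reflecting suppression of K052 cell growth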
Description: SANGER: Inhibition of human K052 cell growth in a cell viability assay.

[60] = test system: 8505C; test: cells; conditions: Homo sapiens
Description: SANGER: Inhibition of human 8505C cell growth in a cell viability assay.

[61] = test system: NCI-H1436; test: cells; conditions: Homo sapiens;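 also: growth suppression of human NCI-H1436 cells, determined with a cell viability readout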
Description: SANGER: Inhibition of human NCI-H1436 cell growth in a cell viability assay.

[62] = test system: ST486; test: SANGER: Inhibition of human ST486 cell growth in a cell viability assay.

O=c1[nH]c2ccccc2n1C1CCN(Cc2ccc(-c3nc4cc5[nH]cnc5cc4nc3-c3ccccc3)cc2)CC1
IC50 [1]: > 2.56 µM
IC50 [2]: > 2.56 µM
IC50 [3]: > 2.56 µM
IC50 [4]: > 2.56 µM
IC50 [5]: > 2.56 µM
IC50 [6]: > 2.56 µM
IC50 [7]: > 2.56 µM
IC50 [8]: > 2.56 µM
IC50 [9]: > 2.56 µM
IC50 [10]: > 2.56 µM
IC50 [11]: > 2.56 µM
IC50 [12]: > 2.56 µM
IC50 [13]: > 2.56 µM
IC50 [14]: > 2.56 µM
IC50 [15]: > 2.56 µM
IC50 [16]: > 2.56 µM
IC50 [17]: 1.68 µM
IC50 [18]: > 2.56 µM
IC50 [19]: > 2.56 µM
IC50 [20]: > 2.56 µM
IC50 [21]: > 2.56 µM
IC50 [22]: > 2.56 µM
IC50 [23]: > 2.56 µM
IC50 [24]: > 2.56 µM
IC50 [25]: > 2.56 µM
IC50 [26]: 2.34 µM
IC50 [27]: > 2.56 µM
IC50 [28]: > 2.56 µM
IC50 [29]: > 2.56 µM
IC50 [30]: > 2.56 µM
IC50 [31]: > 2.56 µM
IC50 [32]: > 2.56 µM
IC50 [33]: > 2.56 µM
IC50 [34]: > 2.56 µM
IC50 [35]: > 2.56 µM
IC50 [36]: > 2.56 µM
IC50 [37]: > 2.56 µM
IC50 [38]: > 2.56 µM
IC50 [39]: > 2.56 µM
IC50 [40]: 2.29 µM
IC50 [41]: > 2.56 µM
IC50 [42]: > 2.56 µM
IC50 [43]: > 2.56 µM
IC50 [44]: > 2.56 µM
IC50 [45]: > 2.56 µM
IC50 [46]: > 2.56 µM
IC50 [47]: > 2.56 µM
IC50 [48]: > 2.56 µM
IC50 [49]: 2.15 µM
IC50 [50]: > 2.56 µM
IC50 [51]: > 2.56 µM
IC50 [52]: 1.39 µM
IC50 [53]: > 2.56 µM
IC50 [54]: > 2.56 µM
IC50 [55]: > 2.56 µM
IC50 [56]: > 2.56 µM
IC50 [57]: > 2.56 µM
IC50 [58]: > 2.56 µM
IC50 [59]: > 2.56 µM
IC50 [60]: > 2.56 µM
IC50 [61]: > 2.56 µM
IC50 [62]: > 2.56 µM

Fc1cc(-c2cc[nH]/c(=N/c3ccc(-n4cnc(N5CCOCC5)n4)cc3)n2)cc(N2CCOCC2)c1
IC50 [1]: 0.512 µM
IC50 [2]: 2.28 µM
IC50 [3]: 0.412 µM
IC50 [4]: 1.63 µM
IC50 [5]: 2.06 µM
IC50 [6]: 3.1 µM
IC50 [7]: 0.885 µM
IC50 [8]: 2.05 µM
IC50 [9]: 0.865 µM
IC50 [10]: 3.8 µM
IC50 [11]: 1.5 µM
IC50 [12]: 3.47 µM
IC50 [13]: 0.627 µM
IC50 [14]: 0.522 µM
IC50 [15]: 0.824 µM
IC50 [16]: 0.587 µM
IC50 [17]: 1.13 µM
IC50 [18]: 0.218 µM
IC50 [19]: 1.08 µM
IC50 [20]: 0.715 µM
IC50 [21]: 1.1 µM
IC50 [22]: 0.22 µM
IC50 [23]: 0.545 µM
IC50 [24]: 5.1 µM
IC50 [25]: 0.535 µM
IC50 [26]: 1.09 µM
IC50 [27]: 0.457 µM
IC50 [28]: 0.782 µM
IC50 [29]: 0.46 µM
IC50 [30]: 0.967 µM
IC50 [31]: 4.99 µM
IC50 [32]: 1.28 µM
IC50 [33]: 1.38 µM
IC50 [34]: 1.01 µM
IC50 [35]: > 5.12 µM
IC50 [36]: 0.112 µM
IC50 [37]: 1.94 µM
IC50 [38]: 1.24 µM
IC50 [39]: 3.65 µM
IC50 [40]: 0.527 µM
IC50 [41]: 3.48 µM
IC50 [42]: 0.389 µM
IC50 [43]: 0.493 µM
IC50 [44]: 1.1 µM
IC50 [45]: 0.722 µM
IC50 [46]: 0.811 µM
IC50 [47]: 0.329 µM
IC50 [48]: 1.69 µM
IC50 [49]: 0.214 µM
IC50 [50]: 0.286 µM
IC50 [51]: 0.617 µM
IC50 [52]: 0.232 µM
IC50 [53]: 0.447 µM
IC50 [54]: 0.999 µM
IC50 [55]: 3.34 µM
IC50 [56]: 1.24 µM
IC50 [57]: 0.349 µM
IC50 [58]: 0.585 µM
IC50 [59]: 0.508 µM
IC50 [60]: 1.26 µM
IC50 [61]: 1.18 µM
IC50 [62]: 0.19 µM
